From article PMC7534897 (Bioorganic & Medicinal Chemistry Letters, 2020)
≈ marks a conversion by molar mass, not a printed value. Where two headings read alike, the source gives them in different places.

Columns and labels:
EV-71A = conditions: cited from earlier work
EV-A71 = conditions: read-out: EC50, EV-A71; cited from earlier work
[1] = tested on: Enterovirus 71 (Tainin/4643/98 strain); experiment: Inhibition of EV-A71 replication in Vero 76 cells; format: cell-based, Enterovirus A71; conditions: for EC50: Enterovirus A
A1 adenosine receptor = conditions: cited from earlier work
[2] = tested on: coxsackie virus B3, enterovirus 68 and poliovirus 1; experiment: organism not typed; format: cell-based; conditions: read-out: EC50 values, range over three viruses
A3 adenosine receptor = conditions: read-out: Ki, A3 adenosine receptor; binds as an agonist; cited from earlier work
[3] = tested on: Enterovirus 68 (US/KY/14–18953 strain); experiment: Inhibition of enterovirus 68 in RD cells; format: cell-based; conditions: Enterovirus D, read-out: EC50/90 values against enterovirus 68, range

SMILES: NC(=O)c1ncn([C@@H]2O[C@H](CO)[C@@H](O)[C@H]2O)n1 [Compound 5, ribavirin]
- IC50, EV-71A viral yield in infected cells (EV-71A): 65 µg/mL (≈ 266 µM)
- IC50 (EV-71A; read-out: IC50, EV-71A viral yield in infected cells): 266 µM

SMILES: OC[C@H]1O[C@@H](n2cnc3c(NCc4ccccc4)ncnc32)[C@H](O)[C@@H]1O [Compound 6, N ^6-benzyl-adenosine]
- EC50 (EV-A71): 5 µM

SMILES: CCOC(=O)c1ccc(OCCC2CCN(c3ccc(C)nn3)CC2)cc1 [Compound 8, Pirodavir, reference compound]
- EC50 ([1]; Vero 76, read-out: EC50 values of pirodavir, range (neutral red)): 0.056 to 0.22 µg/mL
- EC50 ([1]; Vero 76, read-out: EC50 values of pirodavir, range (visual)): 0.036 to 0.32 µg/mL

SMILES: NC(=O)c1ncn([C@H]2[C@H](O)[C@H](O)[C@]3(CO)C[C@H]23)n1 [Compound 9]
- Activity against EV-A71 in words ([1]; at 50 µM, higher concentrations not tested): inactive

SMILES: OC[C@H]1O[C@@H](n2cnc3c(NC(C4CC4)C4CC4)ncnc32)[C@H](O)[C@@H]1O [Compound 10]
- Activity against EV-A71 in words [1]: inactive

SMILES: OC[C@H]1O[C@@H](n2cnc3c(NC(C4CCC4)C4CCC4)ncnc32)[C@H](O)[C@@H]1O [Compound 11]
- Ki (A1 adenosine receptor; read-out: Ki, A1 receptor): < 0.01 µM
- Activity against EV-A71 in words [1]: inactive

SMILES: OC[C@H]1O[C@@H](n2cnc3c(NC(C4CCC4)C4CCC4)nc(Cl)nc32)[C@H](O)[C@@H]1O [Compound 12]
- Ki (A1 adenosine receptor; read-out: Ki, A1 receptor): < 0.01 µM

SMILES: OC[C@@]12C[C@@H]1[C@@H](n1cnc3c(NC(C4CC4)C4CC4)nc(Cl)nc31)[C@H](O)[C@@H]2O [Compound 16]
- Activity against EV-A71 in words [1]: Intermediate potency

SMILES: CC(C)[C@@H](Nc1nc(Cl)nc2c1ncn2[C@H]1[C@H](O)[C@H](O)[C@]2(CO)C[C@H]12)C1CC1 [Compound 17]
- EC50 [2]: 16 to 32 µM
- Ki (A1 adenosine receptor; read-out: Ki, A1 adenosine receptor, binds as an agonist): 0.103 µM
- Ki (A3 adenosine receptor): 1.24 µM

SMILES: CSc1nc(N[C@H](C(C)C)C2CC2)c2ncn([C@H]3[C@H](O)[C@H](O)[C@]4(CO)C[C@H]34)c2n1 [Compound 20, (1R,2R,3S,4R,5S)-4-(6-((1-Cyclopropyl-2-methylpropyl)amino)-2-(methylthio)-9H-purin-9-yl)-1-(hydroxymethyl)bicyclo[3.1.0]hexane-2,3-diol]
- EC50 ([1]; Vero 76, read-out: Visual EC50): > 100 µM

SMILES: CC(C)[C@H](Nc1nc(Cl)nc2c1ncn2[C@H]1[C@H](O)[C@H](O)[C@]2(CO)C[C@H]12)C1CC1 [Compound 21]
- Activity against EV-A71 in words [1]: Intermediate potency

SMILES: CC[C@@H](Nc1nc(SC)nc2c1ccn2[C@H]1[C@H](O)[C@H](O)[C@]2(CO)C[C@H]12)C1CC1 [Compound 26]
- EC50 ([1]; Vero 76, read-out: Visual EC50): 16 µM

SMILES: CC[C@H](Nc1nc(Cl)nc2c1ncn2[C@H]1[C@H](O)[C@H](O)[C@]2(CO)C[C@H]12)C1CC1 [Compound 27]
- EC50 ([1]; Vero 76, read-out: Visual EC50): 16 µM

SMILES: OC[C@@]12C[C@@H]1[C@@H](n1cnc3c(NC(C4CCC4)C4CCC4)nc(Cl)nc31)[C@H](O)[C@@H]2O [Compound 30]
- Activity against EV-A71 in words [1]: prevented inhibition

SMILES: O[C@@H]1[C@H](O)[C@@H]2C[C@@H]2[C@H]1n1cnc2c(NC(C3CC3)C3CC3)nc(Cl)nc21 [Compound 31]
- SI (selectivity index) at EV-A71 ([1]; visual and neutral red methods): ≥ 10
- EC50 [3]: 8 to 16 µM

SMILES: O[C@@H]1[C@H](O)[C@@H]2C[C@@H]2[C@H]1n1cnc2c(NC(C3CCC3)C3CCC3)nc(Cl)nc21 [Compound 42]
- EC50 ([1]; Vero 76, read-out: Visual EC50): > 16 µM

SMILES: CCOC(=O)[C@@]12C[C@@H]1[C@@H](n1cnc3c(NC(C4CC4)C4CC4)nc(Cl)nc31)[C@H](O)[C@@H]2O [Compound 44]
- Activity against EV-A71 in words [1]: inactive

SMILES: CC(C)[C@@H](Nc1nc(Cl)nc2c1ncn2[C@H]1[C@H](O)[C@H](O)[C@]2(CF)C[C@H]12)C1CC1 [Compound 48, (1S,2R,3S,4R,5S)-4-(2-Chloro-6-((1-cyclopropyl-2-methylpropyl)amino)-9H-purin-9-yl)-1-(fluoromethyl)bicyclo[3.1.0]hexane-2,3-diol]
- Activity against EV-A71 in words [1]: intermediate potency
- EC50 ([1]; Vero 76, read-out: Visual EC50): 3.6 µM
- EC50 [3]: 8 to 16 µM

SMILES: CC(C)[C@@H](Nc1nc(Cl)nc2c1ncn2[C@H]1[C@H](O)[C@H](O)[C@]2(CCl)C[C@H]12)C1CC1 [Compound 49, (1S,2R,3S,4R,5S)-4-(2-Chloro-6-((1-cyclopropyl-2-methylpropyl)amino)-9H-purin-9-yl)-1-(chloromethyl)bicyclo[3.1.0]hexane-2,3-diol]
- Activity against EV-A71 in words [1]: intermediate potency

SMILES: CSC[C@@]12C[C@@H]1[C@@H](n1cnc3c(N[C@H](C(C)C)C4CC4)nc(Cl)nc31)[C@H](O)[C@@H]2O [Compound 50, (1S,2R,3S,4R,5S)-4-(2-Chloro-6-((1-cyclopropyl-2-methylpropyl)amino)-9H-purin-9-yl)-1-((methylthio)methyl)bicyclo[3.1.0]hexane-2,3-diol]
- Activity against EV-A71 in words [1]: reduced inhibition

SMILES: CC(C)[C@@H](Nc1nc(Cl)nc2c1ncn2[C@H]1[C@H](O)[C@H](O)[C@]2(CN=[N+]=[N-])C[C@H]12)C1CC1 [Compound 51, (1R,2R,3S,4R,5S)-1-(Azidomethyl)-4-(2-chloro-6-((1-cyclopropyl-2-methylpropyl)amino)-9H-purin-9-yl)bicyclo[3.1.0]hexane-2,3-diol]
- Activity against EV-A71 in words [1]: intermediate potency

SMILES: CC(C)[C@@H](Nc1nc(Cl)nc2c1ncn2[C@H]1[C@H](O)[C@H](O)[C@]2(CN)C[C@H]12)C1CC1 [Compound 52, (1R,2R,3S,4R,5S)-1-(Aminomethyl)-4-(2-chloro-6-((1-cyclopropyl-2-methylpropyl)amino)-9H-purin-9-yl)bicyclo[3.1.0]hexane-2,3-diol]
- Activity against EV-A71 in words [1]: reduced inhibition
